Here are results for 33 molecules from US20050288333A1 (priority 2004, published 2005).

Data set [1] deals with T1, α4β2 nicotinic acetylcholine receptor (Rattus norvegicus, UniProt P09483+P12390).
T1 construct: from tissue; host or cells: rat cerebral cortex membranes
The experiment in a line: [3H]-N-methylcarbamyl choline (3H-MCC) displacement, rat cerebral cortex membranes. Format: binding. How it is done:
Binding at the α4β2 nicotinic acetyicholine receptor can be measured as described in Abood, et al., Biochem. Pharmacol., 1986, 35:4199, or in Boksa, et al, Eur. J Pharmacol., 1987, 139:323. In essence, washed rat cerebral cortex membranes suspended in ice-cold saline (pH 7.4) were incubated with [^3H]-N-methylcarbamyl choline (^3H—MCC) for 60 minutes before being washed free of unbound radioligand with two rapid washes of the saline solution, using vacuum filtration. The glass filters used to collect the membranes for scintillation counting were pre-equilibrated with polyethyleneimine to reduce ligand binding by the filters.
Atropine sulfate at 12 μM was used to block muscarinic binding sites. Non-specific binding was assessed in the presence of 100 μM carbamylcholine. Thus, the Kd values of the test compounds were determined by their ability to compete for [^3H-acetyl]choline or ^3H—MCC binding. […] Some representative compounds of Formula I were tested for their ability to displace [^3H]—MCC. The Kl values presented in the table are mean values obtained from two separate experiments. […] In Table 3, “NA.” means that the data are not available.

The test system of another data set is α7 receptors. Kind of data set: Residual inhibition of ACh response after exposure to compound, oocytes. Format: cell-based. The conditions noted are these: 100 pM compound. Here is the method: Peak currents were measured for responses of α4β2 receptors to agonist application, because desensitization of this receptor subtype was slow enough not to affect the concentration-response relation measured in this manner. Currents resulting from agonist application to the more rapidly desensitizing α7 receptors were integrated over a period of […] after application commenced. To compare data obtained from different oocytes, a standard response normalization procedure was used. Agonist responses of a particular oocyte were always normalized relative to its response to a standard acetylcholine (ACh) control. Before actual measurements of agonist properties, several ACh pulses separated by 5-mm intervals were applied until the responses of the oocyte to ACh became steady. After washing for 5 mm, the peak current response to the test compound was measured. After another 5-mm washing period, ACh was again applied to measure the residual responsiveness of the receptors to ACh after exposure to the test substance. The concentration-response data were fitted with a modified Hill equation, I=Imax [agonist]^nH/([agonist]^nH+EC50), to estimate apparent efficacy (normalized maximal response) and EC50.
The numbers in parentheses in Table 2 are calculated EC50, values for just the ionized forms.

The conditions of data set [2]: Kitagawa et al. 2003; cited from earlier work.
In a further data set the target is α4β2 nicotinic receptors (Rattus norvegicus, UniProt P09483+P12390). The experiment in a line: [3H]cytisine binding displacement, washed whole rat brain membranes.
Setting [3] is: displacement of [3H]-MCC, mean of two experiments, Cheng-Prusoff with Kd 5 nM, read-out: α4β2 Ki.
[4] abbreviates: inhibitory concentration of the ionized form, calculated assuming only the cationic form interacts, read-out: [3H] Cytisine Binding Ki(Ion).
Where [5] appears, read: rat brain membranes, radioligand 1 nM, mean±S.E.M. of three experiments, read-out: [3H] Cytisine Binding Ki ± S.E.M.

Where a name gives a salt, the structure may show the parent alone. Read-outs that look alike come from different tables or passages of the source. Some results are limits rather than exact numbers.

Sequence of α4β2 nicotinic receptors (P09483 31-630): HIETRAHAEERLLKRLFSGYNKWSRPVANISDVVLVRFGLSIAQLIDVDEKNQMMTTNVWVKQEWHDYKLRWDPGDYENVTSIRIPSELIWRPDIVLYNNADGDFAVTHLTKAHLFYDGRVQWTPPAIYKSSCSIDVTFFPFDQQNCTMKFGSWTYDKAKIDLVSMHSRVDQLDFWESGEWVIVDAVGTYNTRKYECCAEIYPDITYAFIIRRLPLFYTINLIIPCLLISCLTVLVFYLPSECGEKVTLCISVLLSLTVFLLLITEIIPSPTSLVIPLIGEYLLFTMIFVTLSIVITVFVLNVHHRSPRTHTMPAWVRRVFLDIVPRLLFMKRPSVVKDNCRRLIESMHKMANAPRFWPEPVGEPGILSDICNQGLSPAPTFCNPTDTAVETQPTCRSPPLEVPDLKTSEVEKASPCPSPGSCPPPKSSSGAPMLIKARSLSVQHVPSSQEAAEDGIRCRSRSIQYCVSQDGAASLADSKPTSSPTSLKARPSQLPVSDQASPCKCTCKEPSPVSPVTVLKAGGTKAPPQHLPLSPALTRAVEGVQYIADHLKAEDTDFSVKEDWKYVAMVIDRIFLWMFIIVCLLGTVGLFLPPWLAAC
Sequence of α4β2 nicotinic receptors (P12390 25-500): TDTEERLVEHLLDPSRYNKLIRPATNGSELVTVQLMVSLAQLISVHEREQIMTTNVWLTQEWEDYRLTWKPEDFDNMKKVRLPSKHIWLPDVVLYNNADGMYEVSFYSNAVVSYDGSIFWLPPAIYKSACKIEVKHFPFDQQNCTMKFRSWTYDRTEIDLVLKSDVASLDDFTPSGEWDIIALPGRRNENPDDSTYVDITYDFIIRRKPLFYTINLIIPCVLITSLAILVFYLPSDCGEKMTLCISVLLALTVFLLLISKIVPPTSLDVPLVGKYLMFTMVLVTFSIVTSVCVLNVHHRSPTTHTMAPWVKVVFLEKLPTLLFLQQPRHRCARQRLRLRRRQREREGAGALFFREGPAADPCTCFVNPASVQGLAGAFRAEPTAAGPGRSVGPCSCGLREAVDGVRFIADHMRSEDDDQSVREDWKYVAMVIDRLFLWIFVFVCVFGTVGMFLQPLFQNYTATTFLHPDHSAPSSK
T1 sequence (P09483 31-630): as the sequence (P09483 31-630) above
T1 sequence (P12390 25-500): as the sequence (P12390 25-500) above

Broadly, the Ki is a dissociation constant, usually derived from enzyme kinetics or from competition with a known ligand. For the molecule “6′-Methyl-3-(2,4-dimethoxybenzylidene)anabaseine [GTS-57]”, the Ki in data set [1] (setting [3]) turned out to be 500 nM. For the molecule `CN(C)c1ccc(C=CC=C2CCCN=C2c2cccnc2)cc1` [DMACA, 3-(4-Dimethylaminocinnamylidene)anabaseine], the Ki in data set [1] (read-out: α4β2 Ki) turned out to be 400 nM. In data set [1], `COc1ccc(C=C2CCCN=C2c2cccnc2)cc1` [GTS-2, 3-(4-Methoxybenzylidene)anabaseine] had a Ki of 320 nM. For `O=[N+]([O-])c1ccc(C=C2CCCN=C2c2cccnc2)cc1` [GTS-3, 3-(4-Nitrobenzylidene)anabaseine], the Ki in data set [1] (read-out: α4β2 Ki) was above 5000 nM. For `N#Cc1ccc(C=C2CCCN=C2c2cccnc2)cc1` [GTS-5, 3-(4-Cyanobenzylidene)anabaseine], the inhibition constant Ki in data set [1] (read-out: α4β2 Ki) was above 5000 nM. With `Oc1ccc(C=C2CCCN=C2c2cccnc2)cc1` [GTS-7, 3-(4-Hydroxybenzylidene)anabaseine], in data set [1] (read-out: α4β2 Ki), the inhibitory constant (Ki) stood at 25 nM. As to `Clc1ccc(C=C2CCCN=C2c2cccnc2)cc1` [GTS-8, 3-(4-Chlorobenzylidene)anabaseine], the Ki in data set [1] (read-out: α4β2 Ki) was above 5000 nM.

For the molecule `Nc1ccc(C=C2CCCN=C2c2cccnc2)cc1` [GTS-13, 3-(4-Aminobenzylidene)anabaseine], the inhibition constant Ki in data set [1] (read-out: α4β2 Ki) worked out at 170 nM. As to `CN(C)CCCOc1ccc(C=C2CCCN=C2c2cccnc2)cc1` [GTS-15, 3-(4-Dimethylaminopropoxy-benzylidene)anabaseine], the inhibitory constant (Ki) in data set [1] (read-out: α4β2 Ki) was 1600 nM. Turning to `COc1ccccc1C=C1CCCN=C1c1cccnc1` [GTS-16, 3-(2-Methoxybenzylidene)anabaseine], the Ki in data set [1] (read-out: α4β2 Ki) is 830 nM. `COc1cccc(C=C2CCCN=C2c2cccnc2)c1` [GTS-20, 3-(3-Methoxybenzylidene)anabaseine] yielded an inhibition constant (Ki) in data set [1] of 4000 nM.

`COc1ccc(/C=C2\CCCN=C2c2cccnc2)c(OC)c1` [GTS-21, 3-(2,4-Dimethoxybenzylidene)anabaseine]: the “residual inhibition (reduced response to ACh 5 min after washing)” value in the data set with α7 receptors was around 50%. In data set [2], the “human toxicity in phase I clinical trial” value is listed as “did not display significant human toxicity”. For the same molecule, the figures for the Ki (in data set [1] (read-out: α4β2 Ki); on α4β2 nicotinic receptors (setting [4]); on α4β2 nicotinic receptors (setting [5])) were 120 nM, 158 nM and 253 ± 37 nM, respectively.

In the case of `COc1cc(C=C2CCCN=C2c2cccnc2)ccc1O` [GTS-23, 3-(3-Methoxy-4-hydroxybenzylidene)anabaseine], the Ki in data set [1] (read-out: α4β2 Ki) is above 5000 nM.

Consider `Cc1ccc(C2=NCCCC2)cn1` [GTS-26, 6′-Methylanabaseine], for which, in data set [1], the affinity, expressed as Ki, was 26 nM. As for `Cc1ncccc1C1=NCCCC1` [GTS-27, 2′-Methylanabaseine], the Ki in data set [1] was found to be 33000 nM.

In data set [1], `Cc1ccncc1C1=NCCCC1` [GTS-28, 4′-Methylanabaseine] showed a Ki of 3800 nM. Consider `COc1cc(OC)c(C=C2CCCN=C2c2cccnc2)c(OC)c1` [GTS-35, 3-(2,4,6-Trimethoxybenzylidene)anabaseine], for which the Ki in data set [1] (read-out: α4β2 Ki) stood at 170 nM. On to `Clc1ccc(C=C2CCCN=C2c2cccnc2)c(Cl)c1` [GTS-38, 3-(2,4-Dichlorobenzylidene)anabaseine], for which the Ki in data set [1] (read-out: α4β2 Ki) amounted to 2000 nM. On to `Cc1ccc(C=C2CCCN=C2c2cccnc2)c(C)c1` [GTS-39, 3-(2,4-Dimethylbenzylidene)anabaseine], for which the Ki in data set [1] (read-out: α4β2 Ki) is 1000 nM. As for `Cc1cc(C)c(C=C2CCCN=C2c2cccnc2)c(C)c1` [GTS-40, 3-(2,46,-Trimethylbenzylidene)anabaseine], the inhibitory constant (Ki) in data set [1] (read-out: α4β2 Ki) was 500 nM. Regarding `C(=C1CCCN=C1c1cccnc1)c1ccco1` [GTS-43, 3-(2-Furylidene)anabaseine], in data set [1] (read-out: α4β2 Ki), the Ki was 640 nM.

Take `C(=Cc1ccco1)C=C1CCCN=C1c1cccnc1` [GTS-44, 3-(2-Furylpropenylidene)anabaseine]: the inhibition constant Ki in data set [1] (read-out: α4β2 Ki) worked out at 800 nM. Take `C(=C1CCCN=C1c1cccnc1)c1ccoc1` [GTS-45, 3(3-Furylidene)anabaseine]: the Ki in data set [1] (read-out: α4β2 Ki) came out at 860 nM. Regarding `Cc1ccc(C=C2CCCN=C2c2cccnc2)cc1` [GTS-48, 3-(4-Methylbenzylidene)anabaseine], in data set [1] (read-out: α4β2 Ki), the Ki came to 2000 nM. For `COc1ccc(C=C2CCCN=C2c2cccnc2)c(O)c1` [GTS-51, 3-(2-Hydroxy-4-methoxybenzylidene)anabaseine], the Ki in data set [1] (read-out: α4β2 Ki) was 1500 nM; on α4β2 nicotinic receptors (setting [4]), 128 nM; on α4β2 nicotinic receptors (setting [5]), 387 ± 25 nM.

For `Oc1ccc(C=C2CCCN=C2c2cccnc2)c(O)c1` [GTS-52, 3-(2,4-Dihydroxybenzylidene)anabaseine], the inhibition constant (Ki) is 450 nM in data set [1] (read-out: α4β2 Ki), 103 nM at α4β2 nicotinic receptors (setting [4]) and 206 ± 16 nM on α4β2 nicotinic receptors (setting [5]). In the case of `CCCOc1ccc(C=C2CCCN=C2c2cccnc2)c(OCCC)c1` [GTS-53, 3-(2,4-Dipropoxybenzylidene)anabaseine], the inhibition constant (Ki) in data set [1] (read-out: α4β2 Ki) was determined as 4500 nM. As for `CC(C)Oc1ccc(C=C2CCCN=C2c2cccnc2)c(OC(C)C)c1` [GTS-54, 3-(2,4-Diisopropoxybenzylidene)anabaseine], the Ki in data set [1] (read-out: α4β2 Ki) turned out to be 1000 nM. With `CCCCCOc1ccc(C=C2CCCN=C2c2cccnc2)c(OCCCCC)c1` [GTS-55, 3-(2,4-Dipentoxybenzylidene)anabaseine], in data set [1] (read-out: α4β2 Ki), the Ki worked out at 2500 nM. Take `CCCCCOc1ccc(C=C2CCCN=C2c2cccnc2)c(O)c1` [GTS-56, 3-(2-Hydroxy-4-pentoxybenzylidene)anabaseine]: the Ki in data set [1] (read-out: α4β2 Ki) amounted to 250 nM.

On to `COc1ccc(C=C2CCC[N+](C)=C2c2cccnc2)c(OC)c1` [GTS-58, 1-Methyl-3-(2,4-djmethoxybenzylidene)anabaseine trifluoroacetate], for which the Ki in data set [1] (setting [3]) was above 5000 nM. `Cc1cncc(C2=NCCCC2)c1` [GTS-60, 5′-Methylanabaseine]: in data set [1], the affinity corresponds to a Ki of 130 nM. Consider `COc1ccc(C=C2CCCN=C2c2ccccc2)c(OC)c1` [GTS-63, 2-Phenyl-3-(2,4-dimethoxybenzylidene)-4,5,6-trihydropyridine], for which the inhibition constant (Ki) in data set [1] (read-out: α4β2 Ki) is above 5000 nM.
